# In PMC7395068, “The evolution of strategies to minimise the risk of human drug-induced liver injury (DILI) in drug discovery and development” (Archives of Toxicology, 2020):
# Like-named read-outs stand apart in the source and are kept apart here.
# Tests used:
# [1] = cited from earlier work
# [2] = plasma free fraction; cited from earlier work
# HepaRG spheroids [3] = test system: HepaRG spheroids
# hLiMTs [4] = test system: hLiMTs
# HepaRG spheroids [5] = test: Combined HCI (HCS) and cellular ATP 3D assay in HepaRG spheroids; settings: HepaRG; for HepaRG <25x Avg Cmax ATP / HepaRG <100x Avg Cmaxu ATP: ATP endpoint; for HepaRG <25x Avg Cmax ATP / HepaRG <25x Avg Cmax HCS / HepaRG <25x Avg Cmax All: cut-off <25x Avg Cmax; for HepaRG <100x Avg Cmaxu ATP / HepaRG <100x Avg Cmaxu HCS / HepaRG <100x Avg Cmaxu All: cut-off <100x Avg Cmaxu; for HepaRG <25x Avg Cmax HCS / HepaRG <100x Avg Cmaxu HCS: HCS endpoints; for HepaRG <25x Avg Cmax All: all endpoints (ATP and HCS); for HepaRG Cmax max All / HepaRG Cmax min All / HepaRG <10 uM All / HepaRG <100x Avg Cmaxu All: all endpoints; for HepaRG Cmax max All: Cmax max used; for HepaRG Cmax min All: Cmax min used; for HepaRG <10 uM All: cut-off <10 uM; for minimal effective concentration: Homo sapiens
# [6] = Plasma free fraction (fu) and unbound Cmax (Cmax,u); type: in vitro ADME, human; settings: unbound plasma Cmax
# Protocol: The prediction of DILI severity was evaluated further using the 3D combined HCI assays using plasma-free fraction. The majority of fu values were obtained from literature, when unavailable in-house prediction was utilised. Unbound plasma Cmax concentrations (Cmax,u) were derived by multiplying total plasma Cmax with the corresponding free fraction (fu) for each compound.
# [7] = test system: HepG2 C3A spheroid, BSEP, Glu/Gal in HepG2 cells, bioactivation; settings: cited from earlier work
# PHH = settings: cited from earlier work
# hLiMTs [8] = test: Combined HCI (HCS) and cellular ATP 3D assay in hLiMTs; settings: for hLiMTs <25x Avg Cmax ATP / hLiMTs <100x Avg Cmaxu ATP: ATP endpoint; for hLiMTs <25x Avg Cmax ATP / hLiMTs <25x Avg Cmax HCS / hLiMTs <25x Avg Cmax All: cut-off <25x Avg Cmax; for hLiMTs <100x Avg Cmaxu ATP / hLiMTs <100x Avg Cmaxu HCS / hLiMTs <100x Avg Cmaxu All: cut-off <100x Avg Cmaxu; for hLiMTs <25x Avg Cmax HCS / hLiMTs <100x Avg Cmaxu HCS: HCS endpoints; for hLiMTs <25x Avg Cmax All: all endpoints (ATP and HCS); for hLiMTs Cmax max All / hLiMTs Cmax min All / hLiMTs <10 uM All / hLiMTs <100x Avg Cmaxu All: all endpoints; for hLiMTs Cmax max All: Cmax max used; for hLiMTs Cmax min All: Cmax min used; for hLiMTs <10 uM All: cut-off <10 uM
# hLiMTs [9] = settings: cited from earlier work
# [10] = read-out: Human plasma Cmax; total plasma Cmax.tot, median of 9 literature references; cited from earlier work
# [11] = test system: THLE or HepG2 cells, isolated mitochondria, BSEP; settings: cited from earlier work
# [12] = cited from earlier work; remark: listed apart in the source
# PHH spheroids = settings: cited from earlier work
# human hepatocytes = settings: cited from earlier work
# [13] = In vitro Assay, ref Proctor 2017
structure (smiles),measurement,setting,value
CN(C)C(=O)Oc1cccc([N+](C)(C)C)c1 [neostigmine],Assigned DILI category,"[1]; Chen et al. 2016 or literature alignment, ref Chen et al. 2016",1
same,In vivo DILI,[1]; […],-VE
same,In vivo DILI,[1]; ref Proctor 2017,-VE
same,In vivo DILI,[1]; ref Williams 2019,-VE
same,fu,[2],0.800
same,DILI prediction HepaRG spheroids (HCS-MEC),HepaRG spheroids [3],-VE
same,DILI prediction hLiMTs (HCS-MEC),hLiMTs [4],-VE
same,HepaRG <25x Avg Cmax ATP,HepaRG spheroids [5],-ve
same,HepaRG <100x Avg Cmaxu ATP,HepaRG spheroids [5],-ve
same,HepaRG <25x Avg Cmax HCS,HepaRG spheroids [5],-ve
same,HepaRG <100x Avg Cmaxu HCS,HepaRG spheroids [5],-ve
same,HepaRG <25x Avg Cmax All,HepaRG spheroids [5],-ve
same,HepaRG Cmax max All,HepaRG spheroids [5],-ve
same,HepaRG Cmax min All,HepaRG spheroids [5],-ve
same,HepaRG <10 uM All,HepaRG spheroids [5],-ve
same,HepaRG <100x Avg Cmaxu All,HepaRG spheroids [5],-ve
same,"Human plasma Cmax,u",[6],0.036 µM
same,"Bayesian Machine Learning DILI prediction, Williams (2019)","[7]; Bayesian modeling, ref Williams et al. 2019",-VE
same,Bayesian Machine Learning,[7]; ref Williams 2019,-VE
same,"PHH/100uM, Proctor (2017)","PHH; 2D PHH, ATP, IC50 threshold 100 µM, ref Proctor et al. 2017",-VE
same,PHH ATP <100uM,PHH; [13],-VE
same,"PHH/100xCmax, Proctor (2017)",PHH,-VE
same,hLiMTs <25x Avg Cmax ATP,hLiMTs [8],-ve
same,hLiMTs <100x Avg Cmaxu ATP,hLiMTs [8],-ve
same,hLiMTs <25x Avg Cmax HCS,hLiMTs [8],-ve
same,hLiMTs <100x Avg Cmaxu HCS,hLiMTs [8],-ve
same,hLiMTs <25x Avg Cmax All,hLiMTs [8],-ve
same,hLiMTs Cmax max All,hLiMTs [8],-ve
same,hLiMTs Cmax min All,hLiMTs [8],-ve
same,hLiMTs <10 uM All,hLiMTs [8],-ve
same,hLiMTs <100x Avg Cmaxu All,hLiMTs [8],-ve
same,hLiMTs ATP <100uM,hLiMTs [9]; [13],-VE
same,"hLiMTs/100xCmax, Proctor (2017)",hLiMTs [9],-VE
same,"hLiMTs/100uM, Proctor (2017)","hLiMTs [9]; hLiMTs, ATP, IC50 threshold 100 µM, ref Proctor et al. 2017",-VE
same,Cmax,[10],45 nM
CC(COc1ccccc1)N(CCCl)Cc1ccccc1 (stereo not drawn) [phenoxybenzamine],Assigned DILI category,[1]; in vivo,1
same,In vivo DILI,[1]; in vivo,-VE
same,fu,[2],0.009
same,DILI prediction HepaRG spheroids (HCS-MEC),HepaRG spheroids [3],-VE
same,DILI prediction hLiMTs (HCS-MEC),hLiMTs [4],-VE
same,HepaRG <25x Avg Cmax ATP,HepaRG spheroids [5],-ve
same,HepaRG <100x Avg Cmaxu ATP,HepaRG spheroids [5],-ve
same,HepaRG <25x Avg Cmax HCS,HepaRG spheroids [5],-ve
same,HepaRG <100x Avg Cmaxu HCS,HepaRG spheroids [5],-ve
same,HepaRG <25x Avg Cmax All,HepaRG spheroids [5],-ve
same,HepaRG Cmax max All,HepaRG spheroids [5],-ve
same,HepaRG Cmax min All,HepaRG spheroids [5],-ve
same,HepaRG <10 uM All,HepaRG spheroids [5],-ve
same,HepaRG <100x Avg Cmaxu All,HepaRG spheroids [5],-ve
same,minimal effective concentration,HepaRG spheroids [5]; read-out: ATP endpoint MEC,25.3 µM
same,minimal effective concentration,HepaRG spheroids [5]; read-out: HCS endpoint MEC,53.8 µM
same,"Human plasma Cmax,u",[6],0.002 µM
same,Partition Hybrid HRM Score,[11],+VE
same,"Partition Hybrid HRM Score ≥4, Aleo (2019)",[11],+VE (key: +VE: Partition Hybrid HRM Score ≥4)
same,"Partition Hybrid HRM Score ≥8, Aleo (2019)",[11],-VE
same,Ro2 Hybrid HRM Score,[11],+VE
same,"Rule of Two hybrid HRM Score ≥3, Aleo (2019)",[11],+VE (key: +VE: Rule of Two hybrid HRM Score ≥3)
same,"Rule of Two hybrid HRM Score ≥8, Aleo (2019)",[11],-VE
same,"DILI +VE (5-8), DILI -VE (-4)",[12]; in vivo,-VE
same,DILI severity category (Chen et al. [2016]),[12]; in vivo,No
same,Bayesian Machine Learning,[7],-VE
same,"Bayesian Machine Learning DILI prediction, Williams (2019)",[7],-VE
same,PHH ATP <100uM,PHH,-VE
same,"PHH/100uM, Proctor (2017)",PHH,-VE
same,"PHH/100xCmax, Proctor (2017)",PHH,-VE
same,AC50,"hLiMTs [8]; Homo sapiens, read-out: ATP endpoint AC50",26.9 µM
same,minimal effective concentration,"hLiMTs [8]; Homo sapiens, read-out: ATP endpoint MEC",10.7 µM
same,minimal effective concentration,"hLiMTs [8]; Homo sapiens, read-out: HCS endpoint MEC",15.6 µM
same,hLiMTs <25x Avg Cmax ATP,hLiMTs [8],-ve
same,hLiMTs <100x Avg Cmaxu ATP,hLiMTs [8],-ve
same,hLiMTs <25x Avg Cmax HCS,hLiMTs [8],-ve
same,hLiMTs <100x Avg Cmaxu HCS,hLiMTs [8],-ve
same,hLiMTs <25x Avg Cmax All,hLiMTs [8],-ve
same,hLiMTs Cmax max All,hLiMTs [8],-ve
same,hLiMTs Cmax min All,hLiMTs [8],-ve
same,hLiMTs <10 uM All,hLiMTs [8],-ve
same,hLiMTs <100x Avg Cmaxu All,hLiMTs [8],-ve
same,hLiMTs ATP <100uM,hLiMTs [9],-VE
same,"hLiMTs/100uM, Proctor (2017)",hLiMTs [9],-VE
same,"hLiMTs/100xCmax, Proctor (2017)",hLiMTs [9],-VE
same,Cmax,[10],197 nM
same,"DILI in vitro assay prediction, Vorrink (2018)",PHH spheroids,-VE
same,hLiMTs ATP <20 x Cmax,PHH spheroids,-VE
same,"DILI in vitro assay prediction, Xu (2008)",human hepatocytes,-VE
same,Structural based (HCI),human hepatocytes,-VE
CC(C)[N+](C)(CCOC(=O)C1c2ccccc2Oc2ccccc21)C(C)C [propantheline],In vivo DILI,[1]; ref Proctor 2017,-VE
same,In vivo DILI,[1]; ref Williams 2019,-VE
same,HepaRG <10 uM All,HepaRG spheroids [3],-ve
same,HepaRG Cmax max All,HepaRG spheroids [3]; human,-ve
same,HepaRG Cmax min All,HepaRG spheroids [3]; human,-ve
same,hLiMTs <10 uM All,hLiMTs [4],-ve
same,hLiMTs Cmax max All,hLiMTs [4]; human,-ve
same,hLiMTs Cmax min All,hLiMTs [4]; human,-ve
same,DILI severity category,[12]; in vivo,No
same,"DILI +VE (5-8), DILI -VE (-4)",[12]; ref Chen 2016,-VE
same,DILI severity category,[12]; ref Chen 2016,vNo-DILI-Concern
same,Bayesian Machine Learning,[7]; ref Williams 2019,-VE
same,PHH ATP <100uM,PHH; [13],-VE
same,hLiMTs ATP <100uM,hLiMTs [9]; [13],-VE
